molecular target: soluble guanylate cyclase (sGC) (Homo sapiens (Human), UniProt Q02108+Q02153); assay: sGC-HEK-cGMP assay, new protocol with DETA-NONOate, LC/MS detection (Example 2C); format: cell-based; settings: HEK293 cells, 10 μM DETA-NONOate, LC/MS detection; concentration eliciting 50% of high control response (30 μM I-329); read-out: Absolute EC50 (uM) - binned
Protocol: Human embryonic kidney cells (HEK293), endogenously expressing soluble guanylate cyclase (sGC), were used to evaluate the activity of test compounds. Compounds stimulating the sGC enzyme should cause an increase in the intracellular concentration of cGMP. HEK 293 cells were seeded in Dulbecco's Modification of Eagle's Medium supplemented with fetal bovine serum (10% final) and penicillin (100 U/mL)/streptomycin (100 μg/mL) in a 50 μL volume at a density of 1.5×10^4 cells/well in a poly-D-lysine coated 384 well flat bottom plate. Cells were incubated overnight at 37° C. in a humidified chamber with 5% CO2. Medium was aspirated and cells were washed with 1× Hank's Buffered Saline Salt Solution (50 μL). Cells were then incubated for 15 minutes at 37° C. with 50 μL of a 0.5 mM 3-isobutyl-1-methylxanthine (IBMX) solution. Test article and Diethylenetriamine NONOate (DETA-NONOate) solutions (x μM concentration for test article solution and 10 μM concentration for DETA-NONOate solution; wherein x is one of the following concentrations);
were then added to the assay mixture and the resulting mixture incubated at 37° C. for 20 minutes. After the 20 minute incubation, the assay mixture was aspirated and 10% acetic acid containing 150 ng/mL+3-cGMP (internal standard for LCMS) (50 μL) was added to the cells. The plate was incubated at 4° C. for 30 minutes in the acetic acid solution to stop the reaction and lyse the cells. The plates were then centrifuged at 1,000 g for 3 minutes at 4° C. and the supernatant transferred to a clean reaction plate for LCMS analysis.
cGMP concentrations were determined from each sample using the LCMS conditions below (Table 5) and calculated standard curve.
Data were normalized to a high control using the following equation: 100*(Sample−Low Control)/(High Control−Low Control), where the low control is the average of 16 samples treated with 1% DMSO, and the high control is the average of 16 samples treated with 30 μM of 1-329 Data were fit using a 4-parameter fit (log(agonist) vs. response—variable slope) using GraphPad Prism Software v.5. n=2 for all compounds. […] Compounds failing to elicit a minimum response of 50% are reported as >30 μM.

Chain of soluble guanylate cyclase (sGC) (Q02153 whole entry): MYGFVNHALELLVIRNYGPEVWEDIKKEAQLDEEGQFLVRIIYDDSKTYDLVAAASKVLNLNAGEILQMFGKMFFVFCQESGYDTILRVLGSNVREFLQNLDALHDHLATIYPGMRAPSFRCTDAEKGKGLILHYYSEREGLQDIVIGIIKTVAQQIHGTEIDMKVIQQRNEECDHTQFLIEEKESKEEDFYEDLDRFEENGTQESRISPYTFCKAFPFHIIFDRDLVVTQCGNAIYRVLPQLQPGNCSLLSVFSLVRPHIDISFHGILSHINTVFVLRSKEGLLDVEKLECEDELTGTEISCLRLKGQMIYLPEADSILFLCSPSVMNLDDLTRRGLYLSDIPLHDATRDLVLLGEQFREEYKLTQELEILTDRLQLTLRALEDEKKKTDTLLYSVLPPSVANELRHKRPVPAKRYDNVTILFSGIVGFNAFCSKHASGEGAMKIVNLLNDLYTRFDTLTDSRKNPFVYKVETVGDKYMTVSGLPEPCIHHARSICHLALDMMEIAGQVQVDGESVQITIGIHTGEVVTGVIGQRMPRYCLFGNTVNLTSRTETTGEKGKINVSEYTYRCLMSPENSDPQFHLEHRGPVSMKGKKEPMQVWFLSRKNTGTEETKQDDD
Chain of soluble guanylate cyclase (sGC) (Q02108 whole entry): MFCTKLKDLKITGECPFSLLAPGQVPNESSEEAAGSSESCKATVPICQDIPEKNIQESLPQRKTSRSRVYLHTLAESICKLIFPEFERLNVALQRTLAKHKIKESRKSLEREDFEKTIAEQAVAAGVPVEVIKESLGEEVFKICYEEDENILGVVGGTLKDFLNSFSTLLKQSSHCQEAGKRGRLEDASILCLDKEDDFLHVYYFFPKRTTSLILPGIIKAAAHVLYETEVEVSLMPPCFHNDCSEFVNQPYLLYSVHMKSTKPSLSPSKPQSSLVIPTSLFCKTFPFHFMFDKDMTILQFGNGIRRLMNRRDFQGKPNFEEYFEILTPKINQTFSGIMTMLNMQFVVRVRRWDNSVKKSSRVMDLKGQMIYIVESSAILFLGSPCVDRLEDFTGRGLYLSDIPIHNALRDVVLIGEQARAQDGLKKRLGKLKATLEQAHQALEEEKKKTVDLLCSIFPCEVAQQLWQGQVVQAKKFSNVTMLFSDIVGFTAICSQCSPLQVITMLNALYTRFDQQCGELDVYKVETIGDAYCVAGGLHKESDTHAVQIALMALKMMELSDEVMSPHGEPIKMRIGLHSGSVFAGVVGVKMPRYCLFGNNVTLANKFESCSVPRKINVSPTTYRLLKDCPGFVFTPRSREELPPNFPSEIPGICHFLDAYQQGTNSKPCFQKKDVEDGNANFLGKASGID

Structure (SMILES) | EC50
O=S(=O)(CC(F)(F)F)Nc1ccnc(-c2cc(-c3ccon3)n(Cc3ccccc3F)n2)n1 [Compound I-444] | 0.101 to 1 µM

same assay, conditions: read-out: Absolute EC50 (uM) - binned

Structure (SMILES) | EC50
O=S(=O)(C1CCN(c2nc(-c3cc(-c4ccon4)n(Cc4ccccc4F)n3)ncc2F)CC1)N1CCOCC1 [Compound I-423] | < 0.1 µM
Fc1ccccc1Cn1nc(-c2ncc(F)c(NCCSC(F)(F)F)n2)cc1-c1ccon1 [Compound I-509] | < 0.1 µM
COC(=O)Nc1nc(-c2cc(-c3ccon3)n(Cc3ccccc3F)n2)ncc1[N+](=O)[O-] [Compound I-541] | > 1 µM
Nc1nc(-c2cc(-c3ccon3)n(CCC(F)(F)F)n2)ncc1F [Compound I-513] | > 1 µM
Fc1ccccc1Cn1nc(-c2ncc(F)c(NCC3(c4ncc[nH]4)CC3)n2)cc1-c1ccon1 [Compound I-567] | > 1 µM
CC1(C(N)=O)C(=O)Nc2nc(-c3cc(-c4ccon4)n(CCC(F)(F)F)n3)nc(N)c21 (stereo not drawn) [Compound I-619] | > 1 µM
OC[C@H]1CCN(c2nc(-c3cc(-c4ccon4)n(Cc4ccccc4F)n3)ncc2F)[C@@H](CO)C1 [Compound I-318] | < 0.1 µM
Fc1ccccc1Cn1nc(-c2ncc(F)c(NCC(F)(F)F)n2)cc1-c1ccon1 [Compound I-466] | < 0.1 µM
CC(C)(C(=O)Nc1ccnc(-c2cc(-c3ccon3)n(Cc3ccccc3F)n2)n1)S(C)(=O)=O [Compound I-580] | 0.101 to 1 µM
O=C(NC1CN(c2nc(-c3cc(-c4ccon4)n(Cc4ccccc4F)n3)ncc2F)C1)C(F)(F)F [Compound I-387] | < 0.1 µM
O=S(=O)(CCNc1nc(-c2cc(-c3ccon3)n(Cc3ccccc3F)n2)ncc1F)C(F)(F)F [Compound I-514] | < 0.1 µM
O=C(N1CC(Nc2nc(-c3cc(-c4ccon4)n(Cc4ccccc4F)n3)ncc2F)C1)C1(O)CC1 [Compound I-470] | < 0.1 µM
CN(CC1(C(=O)O)CC1)c1nc(-c2cc(C#N)n(Cc3ccccc3F)n2)ncc1F [Compound I-480] | 0.101 to 1 µM
O=C(CN1Cc2ccccc2C1=O)Nc1ccnc(-c2cc(-c3ccon3)n(Cc3ccccc3F)n2)n1 [Compound I-599] | > 1 µM
NC(CNc1nc(-c2cc(-c3ccon3)n(Cc3ccccc3F)n2)ncc1F)C(F)(F)F (stereo not drawn) [Compound I-518] | < 0.1 µM
N#Cc1cc(-c2ncc(F)c(NCC(O)(C(F)(F)F)C(F)(F)F)n2)nn1Cc1ccccc1F [Compound I-474] | > 1 µM
C[C@H]1CCCN(c2nc(-c3cc(C#N)n(Cc4ccccc4F)n3)ncc2F)[C@H]1C(=O)O [Compound I-457] | 0.101 to 1 µM
C[C@@H]1[C@H](C(=O)O)CCCN1c1nc(-c2cc(-c3ccon3)n(Cc3ccccc3F)n2)ncc1F [Compound I-310] | < 0.1 µM
Fc1ccccc1Cn1nc(-c2ncc(F)c(N3CCc4[nH]nc(C(F)(F)F)c4C3)n2)cc1-c1ccon1 [Compound I-346] | > 1 µM
Oc1n[nH]c2c1CCN(c1nc(-c3cc(-c4ccon4)n(Cc4ccccc4F)n3)ncc1F)C2 [Compound I-370] | < 0.1 µM
CS(=O)(=O)CCC(=O)Nc1ccnc(-c2cc(-c3ccon3)n(Cc3ccccc3F)n2)n1 [Compound I-573] | 0.101 to 1 µM

Structure (SMILES) | EC50
O=S(=O)(CCNc1nc(-c2cc(-c3ccon3)n(Cc3ccccc3F)n2)ncc1F)NCC(F)(F)F [Compound I-381] | < 0.1 µM
CC(C)[C@@H](Nc1nc(-c2cc(-c3ccon3)n(Cc3ccccc3F)n2)ncc1F)C(N)=O [Compound I-536] | < 0.1 µM
COC(=O)CS(=O)(=O)Nc1ccnc(-c2cc(-c3ccon3)n(Cc3ccccc3F)n2)n1 [Compound I-510] | 0.101 to 1 µM
O=S(=O)(CC(F)(F)F)Nc1ccnc(-c2cc(-c3ccon3)n(Cc3ccccc3F)n2)n1 [Compound I-444] | 0.101 to 1 µM
O=C(O)c1cccc2c1CN(c1nc(-c3cc(-c4ccon4)n(Cc4ccccc4F)n3)ncc1F)CC2 [Compound I-339] | < 0.1 µM
CCOC(=O)C1(C)CCN(c2nc(-c3cc(-c4ccon4)n(Cc4ccccc4F)n3)ncc2F)C1=O (stereo not drawn) [Compound I-591] | 0.101 to 1 µM
O=C(O)[C@H]1[C@H]2CC[C@H](C2)[C@H]1Nc1nc(-c2cc(-c3ccon3)n(Cc3ccccc3F)n2)ncc1F (racemic) [Compound I-379] | < 0.1 µM
O=C(O)C12CC1CN(c1nc(-c3cc(-c4ccon4)n(Cc4ccccc4F)n3)ncc1F)C2 (stereo not drawn) [Compound I-312] | 0.101 to 1 µM
CC(=O)Nc1ccnc(-c2cc(-c3ccon3)n(Cc3ccccc3F)n2)n1 [Compound I-524] | > 1 µM
O=C(O)C1(c2ccc(Nc3nc(-c4cc(-c5ccon5)n(Cc5ccccc5F)n4)ncc3F)cc2)CC1 [Compound I-360] | < 0.1 µM
O=C(O)C12CC(Nc3nc(-c4cc(-c5ccon5)n(Cc5ccccc5F)n4)ncc3F)(C1)C2 [Compound I-269] | > 1 µM
CC(=O)c1cc(-c2ncc(F)c(NC(CO)CO)n2)nn1Cc1ccccc1F [Compound I-462] | > 1 µM
CS(=O)(=O)CC(=O)Nc1ccnc(-c2cc(-c3ccon3)n(Cc3ccccc3F)n2)n1 [Compound I-563] | > 1 µM
O=C1CCC(=O)N1c1nc(-c2cc(-c3ccon3)n(Cc3ccccc3F)n2)ncc1F [Compound I-533] | 0.101 to 1 µM
O=C(Nc1ccnc(-c2cc(-c3ccon3)n(Cc3ccccc3F)n2)n1)c1cocn1 [Compound I-532] | > 1 µM
O=S(=O)(CCC(F)(F)F)Nc1cnc(-c2cc(-c3ccon3)n(Cc3ccccc3F)n2)nc1 [Compound I-595] | 0.101 to 1 µM
O=C(Nc1ccnc(-c2cc(-c3ccon3)n(Cc3ccccc3F)n2)n1)c1cccs1 [Compound I-561] | > 1 µM
O=S(=O)(Cc1ccc(F)cc1)Nc1ccnc(-c2cc(-c3ccon3)n(Cc3ccccc3F)n2)n1 [Compound I-491] | 0.101 to 1 µM
CN(CC1(C(=O)O)CC1)c1nc(-c2cc(-c3nccs3)n(Cc3ccccc3F)n2)ncc1F [Compound I-343] | < 0.1 µM
CC(C)(O)CNc1nc(-c2cc(-c3ccon3)n(Cc3ccccc3F)n2)ncc1F [Compound I-325] | < 0.1 µM
NC(=O)C(Nc1nc(-c2cc(-c3ccon3)n(Cc3ccccc3F)n2)ncc1F)C(F)(F)F (stereo not drawn) [Compound I-540] | 0.101 to 1 µM

Structure (SMILES) | EC50
O=C(Nc1ccnc(-c2cc(-c3ccon3)n(Cc3ccccc3F)n2)n1)c1ccc[nH]1 [Compound I-550] | > 1 µM
O=c1nc[nH]n1-c1nc(-c2cc(-c3ccon3)n(Cc3ccccc3F)n2)ncc1F [Compound I-442] | > 1 µM
COC(=O)N(C)c1c(N)nc(-c2cc(-c3ccon3)n(Cc3ccccc3F)n2)nc1N [Compound I-621] | > 1 µM
Cc1cc(-c2ncc(F)c(N(C)CC3(C(=O)O)CC3)n2)nn1Cc1ccccc1F [Compound I-411] | 0.101 to 1 µM
CCOC(=O)C1(C)C(=O)Nc2cnc(-c3cc(-c4ccon4)n(Cc4ccccc4F)n3)nc21 (stereo not drawn) [Compound I-617] | > 1 µM
O=S(=O)(N1CC(Nc2nc(-c3cc(-c4ccon4)n(Cc4ccccc4F)n3)ncc2F)C1)C(F)(F)F [Compound I-394] | > 1 µM
OCC(CO)(CO)Nc1nc(-c2cc(-c3ccon3)n(Cc3ccccc3F)n2)ncc1F [Compound I-334] | 0.101 to 1 µM
O=C(O)C1(CNc2nc(-c3cc(-c4ccon4)n(Cc4ccccc4F)n3)ncc2F)CC1 [Compound I-358] | < 0.1 µM
CC(=O)c1cc(-c2ncc(F)c(O)n2)nn1Cc1ccccc1F [Compound I-450] | > 1 µM
NC(=O)[C@](O)(CNc1nc(-c2cc(-c3ccon3)n(Cc3ccccc3F)n2)ncc1F)C(F)(F)F [Compound I-531] | < 0.1 µM
O=C1O[C@@H](CO)CN1c1nc(-c2cc(-c3ccon3)n(Cc3ccccc3F)n2)ncc1F [Compound I-575] | < 0.1 µM
OC(CNc1ccnc(-c2cc(-c3ccon3)n(Cc3ccccc3F)n2)n1)(C(F)(F)F)C(F)(F)F [Compound I-500] | 0.101 to 1 µM
Oc1n[nH]c2c1CN(c1nc(-c3cc(-c4ccon4)n(Cc4ccccc4F)n3)ncc1F)CC2 [Compound I-631] | < 0.1 µM
CCN(CC)c1nc(-c2cc(-c3ccon3)n(CCC(F)(F)F)n2)ncc1F [Compound I-517] | > 1 µM
CC(C)NC(=O)NCC(=O)Nc1ccnc(-c2cc(-c3ccon3)n(Cc3ccccc3F)n2)n1 [Compound I-585] | 0.101 to 1 µM
O=S(=O)(Nc1nc(-c2cc(-c3ccon3)n(Cc3ccccc3F)n2)ncc1F)c1ccc(F)cc1 [Compound I-624] | 0.101 to 1 µM
OCCCNc1nc(-c2cc(-c3ccon3)n(Cc3ccccc3F)n2)ncc1F [Compound I-408] | < 0.1 µM
NC(=O)CC(Nc1nc(-c2cc(-c3ccon3)n(Cc3ccccc3F)n2)ncc1F)C(F)(F)F (stereo not drawn) [Compound I-419] | > 1 µM
CN(C[C@H](O)CO)c1nc(-c2cc(-c3ccon3)n(Cc3ccccc3F)n2)ncc1F [Compound I-320] | < 0.1 µM
O=C(O)C(CC(F)F)Nc1nc(-c2cc(-c3ccon3)n(Cc3ccccc3F)n2)ncc1F (stereo not drawn) [Compound I-398] | > 1 µM
